Assay results taken from patent publication US20110313032A1, “COMPETITIVE INHIBITORS OF TYPE II DEHYDROQUINASE ENZYME” (priority 2008, published 2011).
Read-outs that look alike come from different tables or passages of the source.

Experiments:
[1] = molecular target: type II dehydroquinase from Mycobacterium tuberculosis (Mycobacterium tuberculosis, UniProt P9WPX7); assay: biochemical
Experimental: (§1) Effect of compounds of formula I of the invention on the catalytic activity of the type II dehydroquinase from various sources. The inhibitory potency of compounds I of the invention against type II dehydroquinases from Mycobacterium tuberculoris, Streptomyces coelicolor and Helicobacter pylori were assayed as it is described in the following articles: 1) Sanchez-Sixto, C.; Prazeres, V. F. V.; Castedo, L.; Lamb, H.; Hawkins, A. R.; Gonzalez-Bello, C. J. Med. Chem. 2005, 48, 4871; 2) Prazeres, V. F. V.; Sanchez-Sixto, C.; Castedo, L.; Lamb, H.; Hawkins, A. R.; Riboldi-Tunnicliffe; Coggins, J. R.; Lapthorn, A. J.; González-Bello, C. Chem Med Chem 2007, 2, 194; and 3) Sanchez-Sixto, C.; Prazeres, V. F. V.; Castedo, L.; S. W. Suh, Lamb, H.; Hawkins, A. R.; Canada, F. J.; Jiménez-Barbero, J.; González-Bello, C. Chem Med Chem 2008, 3, 756.

[2] = molecular target: T1, type II dehydroquinase from Helicobacter pylori (Helicobacter pylori, UniProt Q48255); assay: Inhibition of type II dehydroquinase from Helicobacter pylori (Ki); format: biochemical
T1 sequence (Q48255 1-167): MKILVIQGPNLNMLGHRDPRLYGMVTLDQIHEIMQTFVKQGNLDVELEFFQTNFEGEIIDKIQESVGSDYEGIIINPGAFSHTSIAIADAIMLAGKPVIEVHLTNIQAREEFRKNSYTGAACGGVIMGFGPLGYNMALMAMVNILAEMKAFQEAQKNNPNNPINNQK
Experimental: as §1

[3] = molecular target: type II dehydroquinase from Streptomyces coelicolor (Streptomyces coelicolor, UniProt P15474); assay: Inhibition of type II dehydroquinase from Streptomyces coelicolor (Ki); format: biochemical
Experimental: as §1

[4] = Inhibition constants Ki, M. tuberculosis, pH = 7.0, 25° C., 50 mM Tris•HOAc
[5] = pH = 7.0, 25° C., 50 mM Tris•HCl, read-out: Inhibition constants Ki, H. pylori
[6] = Inhibition constants Ki, S. coelicolor, pH = 7.0, 25° C., 50 mM Tris•HCl
[7] = inhibition constants against Mycobacterium tuberculosis
[8] = pH = 7.0, 25° C., 50 mM Tris•HOAc, read-out: Inhibition constants Ki, M. tuberculosis
[9] = pH = 7.0, 25° C., 50 mM Tris•HCl, read-out: Inhibition constants Ki, S. coelicolor
[10] = Inhibition constants Ki, H. pylori, pH = 7.0, 25° C., 50 mM Tris•HCl

type II dehydroquinase from Mycobacterium tuberculosis, sequence (P9WPX7 whole entry): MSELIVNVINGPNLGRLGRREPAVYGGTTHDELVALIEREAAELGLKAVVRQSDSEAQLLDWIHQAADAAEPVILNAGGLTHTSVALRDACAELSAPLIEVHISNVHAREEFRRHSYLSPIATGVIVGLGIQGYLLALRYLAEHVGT
type II dehydroquinase from Streptomyces coelicolor, sequence (P15474 whole entry): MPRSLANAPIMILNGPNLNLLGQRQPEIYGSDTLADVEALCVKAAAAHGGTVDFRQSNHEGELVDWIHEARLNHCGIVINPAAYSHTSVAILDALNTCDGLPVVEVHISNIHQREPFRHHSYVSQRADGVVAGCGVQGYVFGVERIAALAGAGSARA

Row | SMILES | Ki [1, 4] [nM] | Ki [2, 5] [nM] | Ki [3, 6] [nM] | Ki [3, 9] [nM] | other results
1 | C/C=C/c1cc2c(s1)[C@@H](OC(C)=O)[C@H](OC(C)=O)C[C@]2(OC(C)=O)C(=O)OC |  |  |  |  | melting point: 140 to 143 °C
2 | CCOC(=O)[C@@]1(O)C[C@@H](O)[C@H](O)c2sc(CCc3ccccc3)cc21 |  |  |  |  | melting point: 118 to 120 °C
3 | COC(=O)[C@@]1(O)C[C@@H](O)[C@H](O)c2sc(C)cc21 |  |  |  |  | melting point: 87 to 92 °C
4 | CC(C)c1cc2c(s1)[C@@H](O)[C@H](O)C[C@]2(O)C(=O)O |  |  |  |  | melting point: 125 to 127 °C
5 | Cc1ccc(CC2C(=O)C(O)C(O)CC2(O)C(=O)O)cc1 (single isomer, unassigned) [(2R)-Ia-4] | 89 | 250 | 22 |  | 
6 | COc1ccc(CC2C(=O)C(O)C(O)CC2(O)C(=O)O)cc1 (single isomer, unassigned) [(2R)-Ia-5] |  | 170 | 34 |  | times more effective than 2,3-dehydroquinic acid, M. tuberculosis ([1]; Ki ratio): 8000 times; times more affinity with respect of the natural substrate, M. tuberculosis ([1]; Km of substrate / Ki): 1600 times; Ki [1, 7]: 25 nM
7 | O=C1C(O)C(O)CC(O)(C(=O)O)C1Cc1c(F)c(F)c(F)c(F)c1F (single isomer, unassigned) [(2R)-Ia-6] | 47 | 2600 | 242 |  | 
8 | O=C1C(O)C(O)CC(O)(C(=O)O)C1Cc1ccc2sccc2c1 (single isomer, unassigned) [(2R)-Ia-7] | 29 | 160 | 4 |  | 
9 | O=C1C(O)C(O)CC(O)(C(=O)O)C1Cc1c(F)c(F)c(F)c(F)c1F (single isomer, unassigned) [(2S)-Ia-6] | 74 |  | 6.5 |  | 
10 | C=CC[C@H]1C(=O)[C@@H](O)[C@H](O)C[C@]1(O)C(=O)O [(2R)-Ia-1, (2R)-2-allyl-3-dehydroquinic acid] |  | 9400 | 10200 |  | Ki [1, 8]: 760 nM
11 | CCCC1C(=O)C(O)C(O)CC1(O)C(=O)O [(2R)-Ia-2, (2R)-2-propyl-3-dehydroquinic acid] |  | 20000 | 76000 |  | Ki [1, 8]: 1700 nM
12 | C=CC[C@@H]1C(=O)[C@@H](O)[C@H](O)C[C@]1(O)C(=O)O [(2S)-Ia-1, (2S)-2-allyl-3-dehydroquinic acid] |  | 21500 | 6700 |  | Ki [1, 8]: 1850 nM
13 | O=C(O)[C@]1(O)C=C(OCc2cc3ccccc3s2)[C@@H](O)[C@H](O)C1 [Ib-1, Sodium (1R, 4S, 5R)-3-(benzo[b]thiophen-2-yl)methoxy-1,4,5-trihydroxycyclohex-2-en-1-carboxylate] |  | 160 |  | 0.48 | Ki [1, 7]: 3.2 nM; Ki ([3]; read-out: affinities in the case of S. coelicolor): 0.48 nM
14 | O=C(O)C1(O)CC(O)C(O)C(OCc2cc3ccccc3s2)=C1Cc1cc2ccccc2s1 (stereo not shown) [Ib-2] | 4.25 | 140 | 2.8 |  | 
15 | Cc1ccc2sc(COC3=C[C@@](O)(C(=O)O)C[C@@H](O)[C@@H]3O)cc2c1 [Ib-3, Sodium (1R, 4S, 5R)-1,4,5-trihydroxy-3-(5-methylbenzo[b]thiophen-2-yl)methoxycyclohex-2-en-1-carboxylate] | 40 | 97 | 2.4 |  | 
16 | Cc1ccc2sc(COC3=C(Cc4cc5cc(C)ccc5s4)[C@@](O)(C(=O)O)C[C@@H](O)[C@@H]3O)cc2c1 [Ib-4, Sodium (1R, 4S, 5R)-1,4,5-trihydroxy-3-(5-methylbenzo[b]thiophen-2-yl)methoxy-2-(5-methylbenzo[b]thiophen-2-yl)methylcyclohex-2-en-1-carboxylate] |  | 70 | 13 |  | Ki [1, 8]: 190 nM
17 | C=CCC1=C(OCc2cc3ccccc3s2)[C@@H](O)[C@H](O)C[C@]1(O)C(=O)O [Ib-5, Sodium (1R, 4S, 5R)-2-allyl-3-(benzo[b]thiophen-2-yl)methoxy-1,4,5-tri-hydroxycyclohex-2-en-1-carboxylate] |  | 1100 | 15 |  | Ki [1, 8]: 1240 nM
18 | O=C(O)[C@]1(O)C=C(OCc2ccc3sccc3c2)[C@@H](O)[C@H](O)C1 [Ib-7, Sodium (1R,4S,5R)-1,4,5-trihydroxy-3[(benzo[b]thiophen-5-yl)methoxy]cyclohex-2-en-1-carboxylate] |  | 166 | 0.3 |  | Ki [1, 8]: 31 nM
19 | O=C(O)[C@@]1(O)C[C@@H](O)[C@H](O)C(OCc2cccs2)=C1Cc1cccs1 [Ib-8] |  | 15000 |  | 140 | 
20 | O=C(O)[C@@]1(O)C[C@@H](O)[C@H](O)C(OCc2ccc3ccccc3c2)=C1Cc1ccc2ccccc2c1 [Ib-11, Sodium (1R,4S,5R)-1,4,5-trihydroxy-3-(naphth-2-yl)methoxy-2-(naphth-2-yl)methylcyclohex-2-en-1-carboxylate] |  |  |  | 32 | 
21 | O=C(O)[C@@]1(O)C[C@@H](O)[C@H](O)C(OCc2cccs2)=C1Cc1cc2ccccc2s1 [Ib-12, Sodium (1R,4S,5R)-1,4,5-trihydroxy-3-(thien-2-yl)methoxy-2-(benzo[b]thiophen-2-yl)methylcyclohex-2-en-1-carboxylate] |  | 46 | 279 |  | 
22 | O=C([O-])[C@@]1(O)C[C@@H](O)[C@H](O)C(OCc2ccc3sccc3c2)=C1Cc1cccs1.[Na+] [Ib-13, Sodium (1R,4S,5R)-1,4,5-trihydroxy-3-(benzo[b]thiophen-5-yl)methoxy-2-(thien-2-yl)methylcyclohex-2-en-1-carboxylate] |  |  | 280 |  | times more effective than the 2,3-dehydroquinic acid, H. pylori ([2]; Ki ratio): 16.190 times; times more affinity with respect of the natural substrate, H. pylori ([2]; Km of substrate / Ki): about 21.000 times; Ki ([2]; read-out: affinities in the case of H. pylori): 21 nM
23 | O=C(O)[C@]1(O)C=C(OCc2ccc3ccccc3c2)[C@@H](O)[C@H](O)C1 [Ib-.10, Sodium (1R,4S,5R)-1,4-trihydroxy-3-(2-naphyl)methoxycyclohex-2-en-1-carboxylate] |  |  |  | < 0.26 | 
24 | Cc1cc2c(s1)[C@@H](O)[C@H](O)C[C@]2(O)C(=O)O [Ic-2, (4R, 6R, 7S)-4,6,7-trihydroxy-2-methyl-4,5,6,7-tetrahydrobenzo[b]thiophen-4-carboxylic acid] | 400 |  |  | 3150 | Ki [2, 10]: 1600 nM
25 | C=Cc1cc2c(s1)[C@@H](O)[C@H](O)C[C@]2(O)C(=O)O [Ic-3, (4R, 6R, 7S)-4,6,7-trihydroxy-2-vinyl-4,5,6,7-tetrahydrobenzo[b]thiophen-4-carboxylic acid] | 52 |  |  | 810 | Ki [2, 10]: 1250 nM
26 | C/C=C/c1cc2c(s1)[C@@H](O)[C@H](O)C[C@]2(O)C(=O)O [Ic-4, (4R, 6R, 7S)-4,6,7-trihydroxy-2-[(E)-prop-1-enyl]-4,5,6,7-tetrahydrobenzo[b]thiophen-4-carboxylic acid] | 97 |  |  | 93 | Ki [2, 10]: 350 nM
27 | C=C(C)c1cc2c(s1)[C@@H](O)[C@H](O)C[C@]2(O)C(=O)O [Ic-5] | 860 |  |  | 1880 | Ki [2, 10]: 38000 nM
28 | C=C(c1ccccc1)c1cc2c(s1)[C@@H](O)[C@H](O)C[C@]2(O)C(=O)O [Ic-10, (4R,6R,7S)-4,6,7-trihydroxy-2-(1-phenylvinyl)-4,5,6,7-tetrahydro-benzo[b]thiophen-4-carboxylic acid] |  |  |  | 4650 | Ki [2, 10]: 20500 nM
29 | O=C(O)[C@@]1(O)C[C@@H](O)[C@H](O)c2sc(CCc3ccccc3)cc21 [Ic-12, (4R,6R,7S)-4,6,7-trihydroxy-2-phenethyl-4,5,6,7-tetrahydrobenzo[b]thiophene-4-carboxylic acid] |  |  |  | 46 | Ki [2, 10]: 1700 nM
30 | CCCc1cc2c(s1)[C@@H](O)[C@H](O)C[C@]2(O)C(=O)O [Ic-13, (4R,6R,7S)-4,6,7-trihydroxy-2-propyl-4,5,6,7-tetrahyclrobenzo[b]thiophene-4-carboxylic acid] |  |  |  | 22 | Ki [2, 10]: 120 nM
